Reference: paper PMC11087982, “In vitro and in vivo activities of a trithiolato-diRuthenium complex conjugated with sulfadoxine against the apicomplexan parasite Toxoplasma gondii” (International Journal for Parasitology: Drugs and Drug …, 2024)
Like-named read-outs stand apart in the source and are kept apart here.

Experiments:
[1] = test system: HFF; assay: HFF host cell cytotoxicity, Alamar blue viability assay; format: cell-based, human; conditions: 72 h, uninfected HFF
Description: To determine cytotoxicity of compounds on host cells, HFF were grown to confluency in 96 well plates and were treated with different concentrations of the drugs solubilized in medium during 72 h at 37 °C/5% CO2, or were treated with the corresponding concentration of DMSO only ([Desiatkina et al., 2020]; [Holzer et al., 2023]; [Păunescu et al., 2021]). The Alamar blue viability assay was used as previously described ([Desiatkina et al., 2020], [2021], [2022a], [2022b]; [Holzer et al., 2023]; [Păunescu et al., 2021]). In short, resazurin was added to each well at 0.01 mg/ml, and subsequently fluorescence of the produced resorufin was measured at excitation wavelength 544/20 nm and emission wavelength 590/20 nm using a Hidex Sense microplate reader (Hidex, Turku, Finland).

[2] = test system: zebrafish (Danio rerio) embryo; assay: Zebrafish embryo acute toxicity test; format: in vivo; conditions: for Malformations (No. embryos with malformations / fertilized embryos) / Mortality (No. of dead embryos / fertilized embryos) / Unaffected embryos (No. / fertilized embryos): 96 h
Description: The zebrafish (Danio rerio) embryo acute toxicity test was carried out to assess the impact of RU-SDX on early embryo development as previously described ([Anghel et al., 2020]). RU-SDX was assessed at 0.2, 2 and 20 μM, while the bumped kinase inhibitor BKI-1748 (applied at 50 μM) was used as a positive control resulting in 100% mortality of zebrafish embryos ([Anghel et al., 2020]). For each test- and control condition, a 24 well plate containing 24 fertilized eggs (1 egg/well) was used. Negative control plates contained 1 ml of E3 medium/osmosis water, whereas eggs in solvent control plates were incubated in E3 medium containing 0.01% DMSO ([Anghel et al., 2020]). For each treatment, a survival rate was calculated that reflected the degree of either embryo death or malformations during the first 96 h of development in relation to eggs maintained without compound.

[3] = test system: T. gondii ShSp1 oocysts; assay: In vivo efficacy in CD1 mice orally infected with T. gondii ShSp1 oocysts (qPCR parasite load)
Excerpt: Female CD1 mice, 6 weeks of age, were purchased from Charles River (Sulzberg, Germany). They were housed in temperature-controlled animal facilities and were randomly distributed into 4 groups (8 mice/group, with 4 mice per cage), and food and water ad libitum. At the age of 8 weeks, mice were experimentally infected by peroral application of 120 TgShSp1 (type II) oocysts ([Imhof et al., 2021]). Placebo and RU-SDX treatments were started at 3 days p. i., with mice being treated orally by gavage. Group 1 (placebo control) received 100 μl corn oil supplemented with 10% DMSO, while group 2 (treatment group) was administered 5 mg/kg RU-SDX solubilized in 100 μl corn oil/10 % DMSO. These treatments were repeated on days 5, 7, 9 and 11 p. i. During the entire experiment mice were monitored for potential health issues at least twice per day. All mice were sacrificed at 30 days p. i. Brain, eyes, heart, and liver were collected and stored at −20 °C for subsequent DNA extraction and quantification of T. gondii load by quantitative PCR (qPCR).
Genomic DNA was extracted from the collected samples using the NucleoSpin DNA RapidLyze Kit (Macherey-Nagel, Oensingen, Switzerland) and DNA concentrations were quantified by the QuantiFluor double-stranded DNA (dsDNA) system (Promega, Madison, WI, USA) as previously described ([Imhof et al., 2021]). DNA concentrations were adjusted to 5 ng/μl, and qPCR reactions were performed in a final volume of 10 μl containing 1x SensiFast master mix (Bioline, Meridian Bioscience), 0.5 μM of reverse and forward primers, 0.1 μM of 529rpeQ-P probe, 0.3 mM dUTP, and one unit of heat-labile Uracil DNA Glycosylase (UDG) ([Hänggeli et al., 2022]). Amplification was performed in the Bio-Rad CFX 96 QPCR instRUment (Biorad) using the following thermal profile: (1) initial incubation of 10 min at 42 °C, followed by (2) denaturation step of 5 min at 95 °C and (3) 50 cycles of two-step amplification (10 s at 95 °C and 20 s at 62 °C). For quantification, a standard curve was made based on a 10-fold serial dilution of DNA from T. gondii, equivalent to tachyzoite numbers ranging from 1 × 10^4 to 1 per 4 μl. The parasite load was expressed as number of tachyzoites per 20 ng of DNA. Statistical analyses were performed using GraphPad Prism version 5.0 (GraphPad Software, La Jolla, CA, USA). Comparisons of the parasite burdens between groups were conducted with the non-parametric Kruskal-Wallis test, followed by the Mann-Whitney-U test.

[4] = test system: T. gondii β-gal tachyzoites; conditions: cited from earlier work

SMILES: CC(C)(C)c1ccc(C[S-])cc1.CC(C)(C)c1ccc(C[S-])cc1.COc1ncnc(NS(=O)(=O)c2ccc(NC(=O)Cc3ccc([S-])cc3)cc2)c1OC.Cc1ccc(C(C)C)cc1.Cc1ccc(C(C)C)cc1.[Cl-].[Ru+2].[Ru+2] [RU-SDX]
- viability (% of control ± SD) ([1]; 2.5 μM): 79 ± 4%
- viability (% of control ± SD) ([1]; 5 μM): 64 ± 4%
- viability (% of control ± SD) ([1]; 10 μM): 31 ± 9%
- survival score (surviving embryos without malformations) ([2]; 0.2 μM): 95%
- Malformations (No. embryos with malformations / fertilized embryos) ([2]; 0.2 μM): 0/20
- Mortality (No. of dead embryos / fertilized embryos) ([2]; 0.2 μM): 1/20
- Unaffected embryos (No. / fertilized embryos) ([2]; 0.2 μM): 19/20
- survival score (surviving embryos without malformations) ([2]; 2 μM): 90%
- Malformations (No. embryos with malformations / fertilized embryos) ([2]; 2 μM): 1/20
- Mortality (No. of dead embryos / fertilized embryos) ([2]; 2 μM): 1/20
- Unaffected embryos (No. / fertilized embryos) ([2]; 2 μM): 18/20
- survival score (surviving embryos without malformations) ([2]; 20 μM): no surviving embryos
- Malformations (No. embryos with malformations / fertilized embryos) ([2]; 20 μM): 0/20
- Mortality (No. of dead embryos / fertilized embryos) ([2]; 20 μM): 20/20
- Unaffected embryos (No. / fertilized embryos) ([2]; 20 μM): 0/20
- time of peak of mortality of zebrafish embryos ([2]; 20 μM, h of embryogenesis): 72 h
- cerebral parasite load compared to placebo control group ([3]; 5 mg/kg oral gavage, 5 treatments from day 3 p.i., brain at 30 days p.i., P = 0.37): did not result in any reduction
- parasite load in eyes compared to placebo control group ([3]; 5 mg/kg oral gavage, 5 treatments from day 3 p.i., eyes at 30 days p.i.): significantly reduced
- parasite load in the heart compared to placebo control group ([3]; 5 mg/kg oral gavage, 5 treatments from day 3 p.i., heart at 30 days p.i.): significantly reduced
- toxicity by clinical signs in treated mice ([3]; 5 mg/kg oral in corn oil/10% DMSO, 5 treatments): not toxic
- proliferation (% of control ± SD) ([4]; 1 μM, ref Desiatkina et al., 2021): ^b^, ^∗∗∗11 ± 1%
- proliferation (% of control ± SD) ([4]; 1.1 μM, ref Desiatkina et al., 2021): ^b^,*116 ± 1%
- proliferation (% of control ± SD) ([4]; 1.25 μM, ref Desiatkina et al., 2021, Păunescu et al.): ^b^, ^a0 ± 0%
